Laboratory results reported in US20110152087A1, “Herbicidal compositions comprising flufenacet” (Bayer CropScience AG, priority 2009, published 2011).

Key:
Format in all cases: in vivo
[1] = tested on: ALOMY=Alopecurus myosuroides=weed; experiment: Greenhouse trial, post-emergence action against weeds (test method 1); details: PO application, about 3 weeks after application; g of AS/ha: flufenacet 120, diclofop 378, diflufenican 120, mixture 120+378+120
Method: (§1) In the standard design of the test, seeds of various broad-leaved weed and weed grass biotypes (origins) were sown in a 8-13 cm diameter pot filled with natural soil of a standard field soil (loamy silt; non-sterile) and covered with a covering soil layer of about 1 cm. The pots were then cultivated in a greenhouse (12-16 h of light, temperature day 20-22° C., night 15-18° C.) until the time of application. The pots were treated on a laboratory track sprayer with spray liquors comprising the compositions according to the invention, mixtures of the prior art or components used individually. Application of the active compounds or active compound combinations formulated as WG, WP, EC or otherwise was carried out at the appropriate growth stages of the plants. The application rate for the spray application was 100-600 l of water/ha. After the treatment, the plants were returned to the greenhouses.
(§2) About 3 weeks after the application, the soil action or/and foliar action was assessed visually according to a scale of 0-100% in comparison to an untreated comparative group: 0%=no noticeable effect compared to the untreated comparative group; 100%=full effect compared to the untreated comparative group.
(§3) (notes: the term “seeds” also includes vegetative propagation forms such as, for example, rhizome pieces; abbreviations used: h light=hours of illumination, g of AS/ha=gram of active substance per hectare, l/ha=liter per hectare, S=sensitive, R=resistant) • 1. Post-emergence action against weeds: seeds of various broad-leaved weed and weed grass biotypes (origins) were sown in a 8-13 cm diameter pot filled with natural soil of a standard field soil (loamy silt; non-sterile) and covered with a covering soil layer of about 1 cm. The pots were then cultivated in a greenhouse (12-16 h of light, temperature day 20-22° C., night 15-18° C.) until the time of application. The pots were treated at various BBCH stages between 11-25 of the seeds/plants, i.e. generally between two to three weeks after the start of the cultivation, on a laboratory track sprayer with spray liquors comprising the compositions according to the invention, mixtures or components used individually, as WG, WP, EC or other formulations. The application rate for the spray application was 100-600 l of water/ha. After the treatment, the plants were returned to the greenhouses and, when required, treated with fertilizer and watered. • 2. Selective post-emergence action: seeds of various crop species (origins) were sown in a 8-13 cm diameter pot filled with natural soil of a standard field soil (loamy silt; non-sterile) and covered with a covering soil layer of about 1 cm. The pots were then cultivated in a greenhouse (12-16 h of light, temperature day 20-22° C., night 15-18° C.) until the time of application. The pots were treated at various BBCH stages between 11-32 of the seeds/plants, i.e. generally between two to four weeks after the start of the cultivation, on a laboratory track sprayer with spray liquors comprising the compositions according to the invention, mixtures or components used individually, as WG, WP, EC or other formulations. The application rate for the spray application was 100-600 l of water/ha. After the treatment, the plants were returned to the greenhouses and, when required, treated with fertilizer and watered. The pots were cultivated in a greenhouse (12-16 h light, temperature day 20-22° C., night 15-18° C.).
(§4) E=(A+B+C)−(A×B+A×C+B×C)/100+(A×B×C)/10 000 • in which: • A, B, C=each the activity of the components A or B or C in percent at a dosage of a or b gram of AS/ha; • E^C=expected value according to Colby in % at a dosage of a+b gram of AS/ha. • Δ=difference (%) of measured value−%-to expected value−%-(measured value minus expected value) • Δ^D=difference (%) of the measured value of an observation A−%-to the measured value of an observation B−%. […]

[2] = tested on: APESV=Apera Spica-venti=weed; experiment: as above; details: PO application, about 3 weeks after application; g of AS/ha: flufenacet 120, diclofop 378, diflufenican 120, mixture 120+378+120
Method: as §1, §2, §3, §4

[3] = tested on: STEME=Stellaria media=weed; experiment: as above; details: PO application, about 3 weeks after application; g of AS/ha: flufenacet 120, diclofop 378, diflufenican 120, mixture 120+378+120
Method: as §1, §2, §3, §4

[4] = tested on: TRZAW=Triticum aestivum, winter wheat=crop plant; experiment: Greenhouse trial, selective post-emergence action on crop plants (test method 2)
Method: as §1, §2, §3, §4

[5] = tested on: TRZAS=Triticum aestivum, summer wheat=crop plant; experiment: as above
Method: as §1, §2, §3, §4

[6] = PO application, about 3 weeks after application, g of AS/ha: flufenacet 120, diclofop 378, diflufenican 120, mixture 120+378+120

CC(C)N(C(=O)COc1nnc(C(F)(F)F)s1)c1ccc(F)cc1 [(A) flufenacet, N-(4-fluorophenyl)-N-(1-methylethyl)-2-[[5-(trifluoromethyl)-1,3,4-thiadiazol-2-yl]oxy]acetamide]
activity ALOMY, visual assessment on scale 0-100% versus untreated [1]: 65%
activity APESV, visual assessment on scale 0-100% versus untreated [2]: 60%
activity STEME, visual assessment on scale 0-100% versus untreated [3]: 30%
action on crop plant TRZAW, visual assessment on scale 0-100% versus untreated ([4]; in vivo, po): 50%
action on crop plant TRZAS, visual assessment on scale 0-100% versus untreated ([5]; in vivo, po): 40%

CC(Oc1ccc(Oc2ccc(Cl)cc2Cl)cc1)C(=O)O (racemic) [(B) diclofop, (±)-2-[4-(2,4-dichlorophenoxy)phenoxy]propanoic acid]
activity ALOMY, visual assessment on scale 0-100% versus untreated [1]: 15%
activity APESV, visual assessment on scale 0-100% versus untreated [2]: 0%
activity STEME, visual assessment on scale 0-100% versus untreated [3]: 0%
action on crop plant TRZAW, visual assessment on scale 0-100% versus untreated [4, 6]: 20%
action on crop plant TRZAS, visual assessment on scale 0-100% versus untreated [5, 6]: 10%

O=C(Nc1ccc(F)cc1F)c1cccnc1Oc1cccc(C(F)(F)F)c1 [(C) diflufenican, N-(2,4-difluorophenyl)-2-[3-(trifluoromethyl)phenoxy]-3-pyridinecarboxamide]
activity ALOMY, visual assessment on scale 0-100% versus untreated [1]: 10%
activity APESV, visual assessment on scale 0-100% versus untreated [2]: 5%
activity STEME, visual assessment on scale 0-100% versus untreated [3]: 30%
action on crop plant TRZAW, visual assessment on scale 0-100% versus untreated [4, 6]: 5%
action on crop plant TRZAS, visual assessment on scale 0-100% versus untreated [5, 6]: 5%
